Reference: ChEMBL document CHEMBL1153595, “Structure-based design and parallel synthesis of N-benzyl isatin oximes as JNK3 MAP kinase inhibitors” (Bioorg Med Chem Lett, 2009)

Legend:
[1] = target: Mitogen-activated protein kinase 10 (Homo sapiens, UniProt P53779); assay: Inhibition of JNK3 by spectrophotometric coupled enzyme assay
[2] = target: Mitogen-activated protein kinase 14 (Homo sapiens, UniProt Q16539); assay: Inhibition of p38alpha by spectrophotometric coupled enzyme assay
[3] = target: Mitogen-activated protein kinase 1 (Homo sapiens, UniProt P28482); assay: Inhibition of ERK2 by spectrophotometric coupled enzyme assay
[4] = target: Cyclin-dependent kinase 2 (Homo sapiens, UniProt P24941); assay: Inhibition of CDK2
[5] = target: Glycogen synthase kinase-3 beta (Homo sapiens, UniProt P49841); assay: Inhibition of GSK3-beta
[6] = target: T1, Tyrosine-protein kinase JAK3 (Homo sapiens, UniProt P52333); assay: Inhibition of JAK3
T1 sequence (P52333 whole entry): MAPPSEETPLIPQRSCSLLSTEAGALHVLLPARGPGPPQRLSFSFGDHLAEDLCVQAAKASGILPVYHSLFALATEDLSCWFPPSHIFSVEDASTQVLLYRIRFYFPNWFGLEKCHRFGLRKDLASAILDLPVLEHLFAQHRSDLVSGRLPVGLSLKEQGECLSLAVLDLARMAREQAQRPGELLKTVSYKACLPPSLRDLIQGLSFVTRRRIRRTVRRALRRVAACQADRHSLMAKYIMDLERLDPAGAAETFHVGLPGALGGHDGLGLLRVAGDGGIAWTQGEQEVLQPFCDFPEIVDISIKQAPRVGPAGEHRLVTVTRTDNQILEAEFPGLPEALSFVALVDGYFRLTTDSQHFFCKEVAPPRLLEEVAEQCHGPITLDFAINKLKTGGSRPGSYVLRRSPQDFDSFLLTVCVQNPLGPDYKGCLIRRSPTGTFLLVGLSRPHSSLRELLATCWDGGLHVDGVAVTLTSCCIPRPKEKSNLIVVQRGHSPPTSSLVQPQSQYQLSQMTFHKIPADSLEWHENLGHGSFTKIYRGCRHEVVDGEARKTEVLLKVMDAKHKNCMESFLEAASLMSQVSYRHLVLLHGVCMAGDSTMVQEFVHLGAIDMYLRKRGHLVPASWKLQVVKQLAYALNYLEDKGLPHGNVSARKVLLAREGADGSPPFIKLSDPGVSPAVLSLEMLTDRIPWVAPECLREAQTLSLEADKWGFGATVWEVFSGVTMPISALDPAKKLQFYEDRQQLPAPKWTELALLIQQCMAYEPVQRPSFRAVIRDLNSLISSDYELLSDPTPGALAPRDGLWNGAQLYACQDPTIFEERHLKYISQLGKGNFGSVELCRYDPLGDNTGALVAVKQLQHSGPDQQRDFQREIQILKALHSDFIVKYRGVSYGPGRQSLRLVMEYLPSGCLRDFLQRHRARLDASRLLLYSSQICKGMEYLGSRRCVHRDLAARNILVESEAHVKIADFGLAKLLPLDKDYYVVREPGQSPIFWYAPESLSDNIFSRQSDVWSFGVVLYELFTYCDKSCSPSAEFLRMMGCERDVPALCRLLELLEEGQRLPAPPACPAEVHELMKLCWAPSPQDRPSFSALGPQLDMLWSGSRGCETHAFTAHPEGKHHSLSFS

[7] = target: Mitogen-activated protein kinase 8 (Homo sapiens, UniProt P45983); assay: Inhibition of JNK1
[8] = target: RAC-gamma serine/threonine-protein kinase (Homo sapiens, UniProt Q9Y243); assay: Inhibition of AKT3
[9] = target: Rho-associated protein kinase 1 (Homo sapiens, UniProt Q13464); assay: Inhibition of ROCK1
Angiopoietin-1 receptor = Angiopoietin-1 receptor (Homo sapiens, UniProt Q02763); assay: Inhibition of Tie2
[10] = target: Proto-oncogene tyrosine-protein kinase Src (Homo sapiens, UniProt P12931); assay: Inhibition of Src
[11] = target: Mitogen-activated protein kinase 9 (Homo sapiens, UniProt P45984); assay: Inhibition of JNK2
[12] = target: T2, Receptor-type tyrosine-protein kinase FLT3 (Homo sapiens, UniProt P36888); assay: Inhibition of FLT3
T2 sequence (P36888 whole entry): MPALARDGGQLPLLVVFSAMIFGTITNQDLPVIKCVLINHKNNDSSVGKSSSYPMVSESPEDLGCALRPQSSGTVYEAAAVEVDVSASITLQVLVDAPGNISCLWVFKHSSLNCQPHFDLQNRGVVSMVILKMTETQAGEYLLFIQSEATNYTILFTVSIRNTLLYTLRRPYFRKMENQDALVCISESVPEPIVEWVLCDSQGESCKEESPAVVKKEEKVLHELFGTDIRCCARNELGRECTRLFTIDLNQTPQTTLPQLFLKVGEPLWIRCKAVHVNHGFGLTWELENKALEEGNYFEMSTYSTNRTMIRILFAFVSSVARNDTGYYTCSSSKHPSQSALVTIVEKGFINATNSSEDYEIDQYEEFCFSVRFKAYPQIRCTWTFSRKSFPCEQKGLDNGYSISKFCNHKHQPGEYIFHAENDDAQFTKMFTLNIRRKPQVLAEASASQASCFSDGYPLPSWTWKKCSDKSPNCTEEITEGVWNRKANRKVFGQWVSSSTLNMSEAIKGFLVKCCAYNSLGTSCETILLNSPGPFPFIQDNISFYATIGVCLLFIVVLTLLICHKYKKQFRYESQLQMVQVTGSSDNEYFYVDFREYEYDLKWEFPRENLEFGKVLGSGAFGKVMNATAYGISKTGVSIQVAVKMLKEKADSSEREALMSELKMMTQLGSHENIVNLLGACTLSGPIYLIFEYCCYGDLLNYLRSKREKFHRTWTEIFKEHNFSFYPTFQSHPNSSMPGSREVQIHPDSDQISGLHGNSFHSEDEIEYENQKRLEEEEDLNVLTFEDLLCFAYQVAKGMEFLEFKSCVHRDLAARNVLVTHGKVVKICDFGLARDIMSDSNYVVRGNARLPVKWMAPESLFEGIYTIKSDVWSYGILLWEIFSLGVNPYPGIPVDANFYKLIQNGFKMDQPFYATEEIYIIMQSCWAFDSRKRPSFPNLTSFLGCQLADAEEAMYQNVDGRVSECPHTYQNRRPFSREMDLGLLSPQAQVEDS

[13] = target: Tyrosine-protein kinase Lck (Homo sapiens, UniProt P06239); assay: Inhibition of LCK
Sequence of Tyrosine-protein kinase Lck (P06239 whole entry): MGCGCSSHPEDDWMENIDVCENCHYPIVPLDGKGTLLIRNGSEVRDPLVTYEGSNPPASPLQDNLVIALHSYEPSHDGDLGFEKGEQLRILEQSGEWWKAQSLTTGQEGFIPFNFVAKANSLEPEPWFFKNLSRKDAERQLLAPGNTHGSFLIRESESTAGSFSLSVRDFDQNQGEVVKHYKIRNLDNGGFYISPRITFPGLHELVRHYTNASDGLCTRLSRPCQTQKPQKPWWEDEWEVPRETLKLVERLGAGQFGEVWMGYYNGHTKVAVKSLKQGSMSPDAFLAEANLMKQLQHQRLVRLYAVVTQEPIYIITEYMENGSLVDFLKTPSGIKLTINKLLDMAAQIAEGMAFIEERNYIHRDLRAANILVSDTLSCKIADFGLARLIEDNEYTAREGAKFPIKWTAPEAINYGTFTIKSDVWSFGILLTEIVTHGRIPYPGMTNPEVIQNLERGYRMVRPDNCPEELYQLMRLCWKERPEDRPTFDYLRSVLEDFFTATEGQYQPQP

Sequence of Mitogen-activated protein kinase 14 (Q16539 whole entry): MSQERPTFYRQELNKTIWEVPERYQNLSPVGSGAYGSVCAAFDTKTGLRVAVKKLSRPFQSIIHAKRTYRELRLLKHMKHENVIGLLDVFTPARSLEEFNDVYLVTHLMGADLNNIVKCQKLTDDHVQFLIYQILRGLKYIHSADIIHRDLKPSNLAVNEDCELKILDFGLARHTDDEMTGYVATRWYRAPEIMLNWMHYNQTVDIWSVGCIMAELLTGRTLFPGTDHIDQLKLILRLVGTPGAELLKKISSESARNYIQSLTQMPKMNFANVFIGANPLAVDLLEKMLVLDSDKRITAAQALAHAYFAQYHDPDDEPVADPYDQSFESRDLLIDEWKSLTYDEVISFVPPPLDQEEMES
Sequence of Mitogen-activated protein kinase 10 (P53779 whole entry): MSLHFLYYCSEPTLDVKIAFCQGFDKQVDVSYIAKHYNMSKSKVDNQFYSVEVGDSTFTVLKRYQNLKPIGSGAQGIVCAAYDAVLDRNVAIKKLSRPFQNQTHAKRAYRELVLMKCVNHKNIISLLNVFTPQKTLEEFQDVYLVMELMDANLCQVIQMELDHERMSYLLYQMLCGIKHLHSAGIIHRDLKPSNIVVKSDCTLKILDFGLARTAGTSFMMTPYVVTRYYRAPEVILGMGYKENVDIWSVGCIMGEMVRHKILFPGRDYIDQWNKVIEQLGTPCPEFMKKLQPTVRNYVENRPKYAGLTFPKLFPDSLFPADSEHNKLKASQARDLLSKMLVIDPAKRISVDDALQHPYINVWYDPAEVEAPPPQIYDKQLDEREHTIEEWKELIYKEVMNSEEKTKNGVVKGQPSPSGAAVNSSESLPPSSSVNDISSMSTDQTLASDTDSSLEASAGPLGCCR
Sequence of Mitogen-activated protein kinase 1 (P28482 whole entry): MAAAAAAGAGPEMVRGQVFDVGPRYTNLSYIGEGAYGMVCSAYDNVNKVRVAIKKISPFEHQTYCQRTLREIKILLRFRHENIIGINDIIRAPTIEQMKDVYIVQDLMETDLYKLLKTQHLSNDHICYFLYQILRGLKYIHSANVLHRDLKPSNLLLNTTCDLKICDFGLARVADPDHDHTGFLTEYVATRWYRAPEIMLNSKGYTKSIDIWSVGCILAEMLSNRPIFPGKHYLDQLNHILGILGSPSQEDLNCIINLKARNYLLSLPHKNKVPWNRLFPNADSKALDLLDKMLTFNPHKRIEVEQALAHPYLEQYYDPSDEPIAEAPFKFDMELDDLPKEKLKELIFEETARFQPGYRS
Sequence of Angiopoietin-1 receptor (Q02763 whole entry): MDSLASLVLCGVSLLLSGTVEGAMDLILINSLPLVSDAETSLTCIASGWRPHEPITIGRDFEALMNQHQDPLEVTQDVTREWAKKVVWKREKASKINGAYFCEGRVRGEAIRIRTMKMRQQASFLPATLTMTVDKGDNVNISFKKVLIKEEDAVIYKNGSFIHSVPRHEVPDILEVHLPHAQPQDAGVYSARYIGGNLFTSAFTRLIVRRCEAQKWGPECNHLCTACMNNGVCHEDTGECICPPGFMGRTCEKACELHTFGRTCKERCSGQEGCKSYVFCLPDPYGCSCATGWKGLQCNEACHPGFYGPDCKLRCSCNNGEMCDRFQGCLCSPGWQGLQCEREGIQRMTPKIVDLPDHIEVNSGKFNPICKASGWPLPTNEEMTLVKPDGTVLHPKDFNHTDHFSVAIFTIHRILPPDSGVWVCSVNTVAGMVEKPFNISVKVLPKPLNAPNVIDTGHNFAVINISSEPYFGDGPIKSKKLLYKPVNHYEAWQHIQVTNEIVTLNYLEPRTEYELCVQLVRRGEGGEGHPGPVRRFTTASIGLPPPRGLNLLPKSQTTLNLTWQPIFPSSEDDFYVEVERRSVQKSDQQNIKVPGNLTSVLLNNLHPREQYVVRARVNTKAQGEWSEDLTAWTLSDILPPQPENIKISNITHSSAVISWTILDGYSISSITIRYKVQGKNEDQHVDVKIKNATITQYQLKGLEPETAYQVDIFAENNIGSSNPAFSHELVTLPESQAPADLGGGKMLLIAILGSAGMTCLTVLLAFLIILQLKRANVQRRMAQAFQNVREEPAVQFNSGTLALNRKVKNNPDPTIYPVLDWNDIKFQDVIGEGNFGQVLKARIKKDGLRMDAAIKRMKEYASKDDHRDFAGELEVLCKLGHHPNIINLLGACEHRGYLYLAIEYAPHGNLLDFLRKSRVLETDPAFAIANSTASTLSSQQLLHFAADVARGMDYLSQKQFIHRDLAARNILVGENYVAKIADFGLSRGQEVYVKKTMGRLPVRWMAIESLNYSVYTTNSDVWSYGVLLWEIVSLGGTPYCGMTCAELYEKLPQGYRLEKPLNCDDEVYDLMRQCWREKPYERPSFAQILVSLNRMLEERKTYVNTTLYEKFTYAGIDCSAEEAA
Sequence of RAC-gamma serine/threonine-protein kinase (Q9Y243 whole entry): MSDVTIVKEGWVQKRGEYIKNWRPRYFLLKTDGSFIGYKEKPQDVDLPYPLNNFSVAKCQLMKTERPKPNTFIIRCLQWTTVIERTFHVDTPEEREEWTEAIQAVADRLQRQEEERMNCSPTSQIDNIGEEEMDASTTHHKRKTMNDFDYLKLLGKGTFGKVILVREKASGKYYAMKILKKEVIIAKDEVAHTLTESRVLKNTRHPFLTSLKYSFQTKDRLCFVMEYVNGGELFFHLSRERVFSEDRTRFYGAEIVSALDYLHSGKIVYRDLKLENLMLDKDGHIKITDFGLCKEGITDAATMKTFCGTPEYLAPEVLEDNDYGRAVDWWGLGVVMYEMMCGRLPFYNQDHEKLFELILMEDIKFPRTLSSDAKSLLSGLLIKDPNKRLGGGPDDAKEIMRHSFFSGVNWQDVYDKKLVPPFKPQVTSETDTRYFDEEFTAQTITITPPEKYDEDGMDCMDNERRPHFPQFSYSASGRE
Sequence of Mitogen-activated protein kinase 9 (P45984 whole entry): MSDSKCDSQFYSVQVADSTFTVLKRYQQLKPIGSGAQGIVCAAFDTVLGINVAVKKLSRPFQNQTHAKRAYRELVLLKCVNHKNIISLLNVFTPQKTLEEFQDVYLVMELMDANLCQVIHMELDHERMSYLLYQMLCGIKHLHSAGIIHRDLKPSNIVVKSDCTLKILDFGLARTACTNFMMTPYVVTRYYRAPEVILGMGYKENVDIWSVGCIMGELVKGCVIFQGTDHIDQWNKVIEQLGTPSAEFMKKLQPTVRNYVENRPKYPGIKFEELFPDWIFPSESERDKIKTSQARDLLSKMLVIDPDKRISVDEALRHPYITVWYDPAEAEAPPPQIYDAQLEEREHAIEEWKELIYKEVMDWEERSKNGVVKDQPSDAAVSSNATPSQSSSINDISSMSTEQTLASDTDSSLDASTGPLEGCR
Sequence of Glycogen synthase kinase-3 beta (P49841 whole entry): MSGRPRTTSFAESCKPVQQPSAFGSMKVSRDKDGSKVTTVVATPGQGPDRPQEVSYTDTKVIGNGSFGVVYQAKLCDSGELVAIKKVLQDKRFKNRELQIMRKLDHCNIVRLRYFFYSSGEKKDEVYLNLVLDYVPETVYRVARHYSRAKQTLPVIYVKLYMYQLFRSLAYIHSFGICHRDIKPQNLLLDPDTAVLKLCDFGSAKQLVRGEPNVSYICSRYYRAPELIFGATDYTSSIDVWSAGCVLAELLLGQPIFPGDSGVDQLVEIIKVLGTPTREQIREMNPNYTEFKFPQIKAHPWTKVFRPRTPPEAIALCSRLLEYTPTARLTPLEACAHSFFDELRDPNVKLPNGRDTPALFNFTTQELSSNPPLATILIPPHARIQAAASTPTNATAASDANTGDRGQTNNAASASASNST
Sequence of Proto-oncogene tyrosine-protein kinase Src (P12931 2-536 limits assumed): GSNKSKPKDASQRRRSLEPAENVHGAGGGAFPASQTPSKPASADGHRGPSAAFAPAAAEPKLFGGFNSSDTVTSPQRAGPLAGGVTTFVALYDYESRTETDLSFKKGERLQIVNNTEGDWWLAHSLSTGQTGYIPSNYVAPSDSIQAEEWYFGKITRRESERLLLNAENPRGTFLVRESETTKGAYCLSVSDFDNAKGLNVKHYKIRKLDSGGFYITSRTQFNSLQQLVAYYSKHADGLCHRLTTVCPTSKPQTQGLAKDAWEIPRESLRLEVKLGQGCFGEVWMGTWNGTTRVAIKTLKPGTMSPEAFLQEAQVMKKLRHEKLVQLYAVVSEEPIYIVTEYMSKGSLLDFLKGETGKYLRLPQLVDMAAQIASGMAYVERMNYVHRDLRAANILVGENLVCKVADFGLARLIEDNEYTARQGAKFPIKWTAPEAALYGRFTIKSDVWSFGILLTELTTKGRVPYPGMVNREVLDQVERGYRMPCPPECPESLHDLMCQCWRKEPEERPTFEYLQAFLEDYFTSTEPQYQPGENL

O=Nc1c(O)n(Cc2cccc(C(F)(F)F)c2)c2ccccc12
Ki [1]: 5.2 µM

O=Nc1c(O)n(Cc2ccc(Cl)cc2)c2ccccc12
Ki [1]: 6.7 µM

O=Nc1c(O)n(Cc2cccc(Cl)c2)c2ccccc12
Ki [1]: 5 µM

O=Nc1c(O)n(Cc2ccccc2)c2ccccc12
Ki [1]: > 10 µM

Cc1ccc(Cn2c(O)c(N=O)c3ccccc32)cc1
Ki [1]: 9.9 µM

O=C1/C(=N\O)c2c(-c3ccccc3)cccc2N1Cc1cc(F)cc2c1OCOC2
Ki [2]: 9.5 µM | Ki [3]: 25 µM

O=C1/C(=N\O)c2ccc(Br)cc2N1Cc1cc(F)cc2c1OCOC2
Ki [1]: 0.1 µM

O=C1/C(=N\O)c2ccc(-c3ccccc3)cc2N1Cc1cc(F)cc2c1OCOC2
Ki [1]: 0.2 µM

COc1cc(CN2C(=O)/C(=N\O)c3ccccc32)cc(OC)c1
Ki [1]: 0.99 µM

Cc1cccc(CN2C(=O)/C(=N\O)c3cc(C)ccc32)c1
Ki [1]: > 10 µM

COc1cc(CN2C(=O)/C(=N\O)c3cc(F)ccc32)cc(OC)c1
Ki [1]: 0.79 µM

Cc1ccc2c(c1)N(Cc1cc(F)cc3c1OCOC3)C(=O)/C2=N\O
Ki [4]: > 30 µM | Ki [5]: > 30 µM | Ki [6]: > 30 µM | Ki [2]: > 20 µM | Ki [7]: 0.45 µM | Ki [8]: > 30 µM | Ki [9]: > 30 µM | Ki [3]: > 50 µM | Ki [1]: 0.09 µM | Ki (Angiopoietin-1 receptor): > 10 µM | Ki [10]: > 30 µM | Ki [11]: 0.07 µM | Ki [12]: 4 µM | Ki [13]: > 30 µM

O=C1/C(=N\O)c2ccc([N+](=O)[O-])cc2N1Cc1cc(F)cc2c1OCOC2
Ki [1]: 0.64 µM

O=C1/C(=N\O)c2cc(OC(F)(F)F)ccc2N1Cc1cc(F)cc2c1OCOC2
Ki [1]: 1.7 µM

O=C1/C(=N\O)c2ccccc2N1Cc1ccc(F)cc1
Ki [1]: 8.3 µM

CCC(=O)Nc1ccc2c(c1)N(Cc1cc(F)cc3c1OCOC3)C(=O)/C2=N\O
Ki [1]: 0.61 µM

O=C1/C(=N\O)c2ccccc2N1Cc1cc(F)cc2c1OCOC2
Ki [1]: 0.51 µM

O=C1/C(=N\O)c2cc(Br)ccc2N1Cc1ccccc1
Ki [1]: 2.5 µM

Cc1ccc2c(c1)/C(=N/O)C(=O)N2c1ccccc1
Ki [1]: > 30 µM

CCc1cccc2c1/C(=N/O)C(=O)N2Cc1cc(F)cc2c1OCOC2
Ki [3]: > 15 µM | Ki [1]: 1.4 µM

N#Cc1cccc2c1/C(=N/O)C(=O)N2Cc1cc(F)cc2c1OCOC2
Ki [1]: 2 µM

O=C1/C(=N\O)c2ccc(C(F)(F)F)cc2N1Cc1cc(F)cc2c1OCOC2
Ki [1]: 0.33 µM

O=C(O)c1ccc2c(c1)N(Cc1cc(F)cc3c1OCOC3)C(=O)/C2=N\O
Ki [1]: 0.3 µM

O=C1/C(=N\O)c2c(-c3cccc(F)c3)cccc2N1Cc1cc(F)cc2c1OCOC2
Ki [2]: 7.4 µM | Ki [3]: 23 µM | Ki [1]: 5.8 µM

Cc1cccc2c1/C(=N/O)C(=O)N2Cc1cc(F)cc2c1OCOC2
Ki [3]: > 15 µM | Ki [1]: 0.7 µM

Cc1cccc(CN2C(=O)/C(=N\O)c3ccccc32)c1
Ki [1]: 6.8 µM

O=C1/C(=N\O)c2cc(F)ccc2N1Cc1ccccc1
Ki [1]: > 10 µM

Cc1ccc2c(c1)/C(=N/O)C(=O)N2Cc1cccc(C(F)(F)F)c1
Ki [1]: 2.7 µM

COC(=O)c1cccc2c1/C(=N/O)C(=O)N2Cc1cc(F)cc2c1OCOC2
Ki [3]: > 15 µM | Ki [1]: 30 µM

O=C1/C(=N\O)c2c(CCc3ccccc3)cccc2N1Cc1cc(F)cc2c1OCOC2
Ki [2]: 0.03 µM | Ki [3]: > 15 µM | Ki [1]: > 15 µM

O=C1/C(=N\O)c2ccccc2N1Cc1ccc([N+](=O)[O-])cc1
Ki [1]: 7 µM

Cc1ccc2c(c1)/C(=N/O)C(=O)N2Cc1ccccc1
Ki [1]: > 10 µM

O=C1/C(=N\O)c2cc(Cl)ccc2N1Cc1cc(F)cc2c1OCOC2
Ki [1]: 0.74 µM

COc1ccc2c(c1)N(Cc1cc(F)cc3c1OCOC3)C(=O)/C2=N\O
Ki [1]: 0.24 µM

O=C1/C(=N\O)c2c(/C=C/c3ccccc3)cccc2N1Cc1cc(F)cc2c1OCOC2
Ki [2]: 0.23 µM

Nc1ccc2c(c1)N(Cc1cc(F)cc3c1OCOC3)C(=O)/C2=N\O
Ki [1]: 0.4 µM

CCNC(=O)c1ccc2c(c1)N(Cc1cc(F)cc3c1OCOC3)C(=O)/C2=N\O
Ki [1]: 1 µM

O=C1/C(=N\O)c2ccccc2N1Cc1ccccc1F
Ki [1]: 8.5 µM

O=C1/C(=N\O)c2c(Br)cccc2N1Cc1cc(F)cc2c1OCOC2
Ki [2]: > 10 µM | Ki [3]: > 15 µM | Ki [1]: 0.185 µM

O=C1/C(=N\O)c2ccccc2N1Cc1ccccc1[N+](=O)[O-]
Ki [1]: > 10 µM

C=Cc1cccc2c1/C(=N/O)C(=O)N2Cc1cc(F)cc2c1OCOC2
Ki [2]: 8 µM | Ki [3]: > 15 µM | Ki [1]: 0.14 µM

COC(=O)c1ccc2c(c1)N(Cc1cc(F)cc3c1OCOC3)C(=O)/C2=N\O
Ki [1]: 0.16 µM

O=C1/C(=N\O)c2c(-c3ccc(F)cc3)cccc2N1Cc1cc(F)cc2c1OCOC2
Ki [2]: 3.4 µM | Ki [3]: > 15 µM | Ki [1]: 13 µM

O=C1/C(=N\O)c2ccccc2N1Cc1cccc(F)c1
Ki [1]: 8.1 µM

CS(=O)(=O)Nc1ccc2c(c1)N(Cc1cc(F)cc3c1OCOC3)C(=O)/C2=N\O
Ki [1]: 0.46 µM

COc1ccc(CN2C(=O)/C(=N\O)c3cc(F)ccc32)cc1
Ki [1]: 1.6 µM

O=C1/C(=N\O)c2ccccc2N1Cc1cccc([N+](=O)[O-])c1
Ki [1]: 0.94 µM

O=C1/C(=N\O)c2cc(Cl)ccc2N1Cc1ccccc1
Ki [1]: 12 µM
